Inhibition data for 20 compounds are collected here from patent US8563551B2, “Method for preventing or treating a disease related to the glucocorticoid receptor” (Santen Pharmaceutical Co., Ltd., priority 2006, dated 2013).

The test deals with T1, Recombinant human GR (Homo sapiens, UniProt P04150).
T1 construct: purchased Invitrogen P2816
T1 sequence (P04150 1-777): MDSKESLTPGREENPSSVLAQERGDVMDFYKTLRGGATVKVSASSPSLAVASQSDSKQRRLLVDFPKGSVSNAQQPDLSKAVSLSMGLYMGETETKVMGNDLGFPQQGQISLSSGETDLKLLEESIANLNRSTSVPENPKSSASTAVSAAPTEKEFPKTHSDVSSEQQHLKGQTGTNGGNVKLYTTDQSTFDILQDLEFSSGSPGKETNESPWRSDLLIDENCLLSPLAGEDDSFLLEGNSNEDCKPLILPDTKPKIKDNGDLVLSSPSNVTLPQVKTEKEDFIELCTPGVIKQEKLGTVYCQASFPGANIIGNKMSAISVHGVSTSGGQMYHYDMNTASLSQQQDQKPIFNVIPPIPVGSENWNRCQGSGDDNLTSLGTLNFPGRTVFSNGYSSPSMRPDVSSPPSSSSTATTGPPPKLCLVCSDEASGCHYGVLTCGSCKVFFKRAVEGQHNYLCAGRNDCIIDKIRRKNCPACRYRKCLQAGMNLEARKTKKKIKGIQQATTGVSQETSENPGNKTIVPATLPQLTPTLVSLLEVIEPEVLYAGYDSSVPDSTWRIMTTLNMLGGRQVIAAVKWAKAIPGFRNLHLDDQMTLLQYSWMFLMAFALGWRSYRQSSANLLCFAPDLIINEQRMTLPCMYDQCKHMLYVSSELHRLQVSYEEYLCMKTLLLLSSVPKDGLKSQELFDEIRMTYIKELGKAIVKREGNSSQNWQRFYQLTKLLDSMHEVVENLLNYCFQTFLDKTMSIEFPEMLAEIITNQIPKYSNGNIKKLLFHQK
Kind of test: GR competitor assay (receptor competitor assay by fluorescence polarization, Invitrogen kit P2816). To be noted: 20 μM test compound solution (10 μL per well plus 5 μL 4×GS1 and 5 μL 4×GR); relative to 2 mM dexamethasone positive control; ratios of 100% or more are indicated by 100%; read-out: GR Binding ratio (%). On the procedure: In order to evaluate a binding activity to GR, a receptor competitor assay was carried out by a fluorescence polarization method. In the assay, a GR competitor assay kit (manufactured by Invitrogen, cat No. P2816) was used, and a procedure was carried out according to the protocol attached to the kit. Hereinafter, the specific method will be described.
GR screening buffer: A buffer containing 10 mM potassium phosphate (pH 7.4), 20 mM sodium molybdate (Na2MoO4), 0.1 mM ethylene diamine tetraacetic acid (EDTA), 5 mM dithiothreitol (DTT), 0.1 mM stabilizing peptide and 2% dimethylsulfoxide was prepared.
4×GS1 solution: Fluormone™ GS1, which is a fluorescent glucocorticoid ligand, was diluted with GR screening buffer, whereby a 4 nM solution was prepared.
4×GR solution: Recombinant human GR was diluted with GR screening buffer, whereby a 16 nM solution was prepared.
After a test compound was dissolved in dimethylsulfoxide, the resulting solution was diluted with GR screening buffer, whereby a 20 μM test compound solution was prepared.
1) The test compound solution was added in an amount of 10 μL into each well of a 384-well plate, and then, 4×GS1 solution and 4×GR solution were added in an amount of 5 μL into each well, respectively.
2) The plate was incubated in a dark place at room temperature for 2 to 4 hours.
3) By using a multimode plate reader, Analyst™ HT (manufactured by LJL Biosystems), fluorescence polarization of each well was measured. As the blank, a well containing GR screening buffer in place of the test compound and 4×GS1 solution was used.
4) The same procedure as that in the above 1) to 3) was carried out except that GR screening buffer was used in place of the test compound solution, and the obtained result was taken as the negative control.
5) The same procedure as that in the above 1) to 3) was carried out except that 2 mM dexamethasone was used in place of the test compound solution, and the obtained result was taken as the positive control.
A GR binding ratio (%) was calculated from the following equation. GR binding ratio(%)=100×[1−(fluorescence polarization of test compound solution−fluorescence polarization of positive control solution)/(fluorescence polarization of negative control solution fluorescence polarization of positive control solution)] (Test Results and Discussion)
For orientation: In fluorescence polarisation assays a small probe gives low polarisation when free and higher when bound to something large.

Regarding `COc1cc(OC(=O)c2ccc(C)nc2)ccc1-c1ccc2c(c1COC(=O)c1ccc(C)s1)C(C)=CC(C)(C)N2` [Compound 1-2, 6-[2-Methoxy-4-(6-methylpyridin-3-ylcarbonyloxy)phenyl]-5-(5-methylthiophen-2-ylcarbonyloxymethyl)-2,2,4-trimethyl-1,2-dihydroquinoline], the inhibition at 20 µM (stock) was 93%.

As to `COc1cc(OC(=O)c2ccoc2)ccc1-c1ccc2c(c1COC(=O)c1ccc(C)cc1)C(C)=CC(C)(C)N2` [Compound 1-3, 6-[4-(Furan-3-ylcarbonyloxy)-2-methoxyphenyl]-5-(4-methylbenzoyloxymethyl)-2,2,4-trimethyl-1,2-dihydroquinoline], the inhibition at 20 µM (stock) worked out at 100%.

Take `COc1cc(OC(=O)c2ccccc2Cl)ccc1-c1ccc2c(c1COC(=O)c1ccc(C)cc1)C(C)=CC(C)(C)N2` [Compound 1-6, 6-[4-(2-Chlorobenzoyloxy)-2-methoxyphenyl]-5-(4-methylbenzoyloxymethyl)-2,2,4-trimethyl-1,2-dihydroquinoline]: the inhibition at 20 µM (stock) was 100%.

Consider `COc1ccccc1C(=O)Oc1ccc(-c2ccc3c(c2COC(=O)c2ccc(C)cc2)C(C)=CC(C)(C)N3)c(OC)c1` [Compound 1-7, 6-[2-Methoxy-4-(2-methoxybenzoyloxy)phenyl]-5-(4-methylbenzoyloxymethyl)-2,2,4-trimethyl-1,2-dihydroquinoline], for which the inhibition at 20 µM (stock) came to 100%.

Consider `COc1cc(OC(=O)c2cccnc2)ccc1-c1ccc2c(c1COC(=O)c1ccc(C)cc1)C(C)=CC(C)(C)N2` [Compound 1-8, 5-(4-Methylbenzoyloxymethyl)-6-[2-methoxy-4-(pyridin-3-ylcarbonyloxy)phenyl]-2,2,4-trimethyl-1,2-dihydroquinoline], for which the inhibition at 20 µM (stock) is 100%.

`COc1cc(OC(=O)c2ccco2)ccc1-c1ccc2c(c1COC(=O)c1ccc(C)cc1)C(C)=CC(C)(C)N2` [Compound 1-10, 6-[4-(Furan-2-ylcarbonyloxy)-2-methoxyphenyl]-5-(4-methylbenzoyloxymethyl)-2,2,4-trimethyl-1,2-dihydroquinoline]: the inhibition at 20 µM (stock) worked out at 100%.

For `CCCC(=O)Oc1ccc(-c2ccc3c(c2COC(=O)c2ccc(C)s2)C(C)=CC(C)(C)N3)c(OC)c1` [Compound 1-11, 6-(4-Butyryloxy-2-methoxyphenyl)-5-(5-methylthiophen-2-ylcarbonyloxymethyl)-2,2,4-trimethyl-1,2-dihydroquinoline], the inhibition at 20 µM (stock) was found to be 100%.

In the case of `COc1ccccc1C(=O)Oc1ccc(-c2ccc3c(c2COC(=O)c2ccc(C)s2)C(C)=CC(C)(C)N3)c(OC)c1` [Compound 1-12, 6-[2-Methoxy-4-(2-methoxybenzoyloxy)phenyl]-5-(5-methylthiophen-2-ylcarbonyloxymethyl)-2,2,4-trimethyl-1,2-dihydroquinoline], the inhibition at 20 µM (stock) amounted to 93%.

Consider `COc1cc(OC(=O)c2cccnc2)ccc1-c1ccc2c(c1COC(=O)c1ccc(C)s1)C(C)=CC(C)(C)N2` [Compound 1-13, 6-[2-Methoxy-4-(pyridin-3-ylcarbonyloxy)phenyl]-5-(5-methylthiophen-2-ylcarbonyloxymethyl)-2,2,4-trimethyl-1,2-dihydroquinoline], for which the inhibition at 20 µM (stock) came out at 96%.

`COc1cc(OC(=O)c2ccco2)ccc1-c1ccc2c(c1COC(=O)c1ccc(C)s1)C(C)=CC(C)(C)N2` [Compound 1-14, 6-[4-(Furan-2-ylcarbonyloxy)-2-methoxyphenyl]-5-(5-methylthiophen-2-ylcarbonyloxymethyl)-2,2,4-trimethyl-1,2-dihydroquinoline]: the inhibition at 20 µM (stock) was 96%.

With `COc1cc(OC(=O)c2ccccc2Cl)ccc1-c1ccc2c(c1COC(=O)c1ccc(C)s1)C(C)=CC(C)(C)N2` [Compound 1-15, 6-[4-(2-Chlorobenzoyloxy)-2-methoxyphenyl]-5-(5-methylthiophen-2-ylcarbonyloxymethyl)-2,2,4-trimethyl-1,2-dihydroquinoline], the inhibition at 20 µM (stock) turned out to be 91%.

In the case of `COc1cc(OC(=O)c2cccc(Cl)c2)ccc1-c1ccc2c(c1COC(=O)c1ccc(C)s1)C(C)=CC(C)(C)N2` [Compound 1-16, 6-[4-(3-Chlorobenzoyloxy)-2-methoxyphenyl]-5-(5-methylthiophen-2-ylcarbonyloxymethyl)-2,2,4-trimethyl-1,2-dihydroquinoline], the inhibition at 20 µM (stock) was determined as 85%.

`COc1cc(OC(=O)c2ccc(Cl)cc2)ccc1-c1ccc2c(c1COC(=O)c1ccc(C)s1)C(C)=CC(C)(C)N2` [Compound 1-17, 6-[4-(4-Chlorobenzoyloxy)-2-methoxyphenyl]-5-(5-methylthiophen-2-ylcarbonyloxymethyl)-2,2,4-trimethyl-1,2-dihydroquinoline]: the inhibition at 20 µM (stock) was 84%.

Consider `COc1cc(OC(=O)c2ccccc2)ccc1-c1ccc2c(c1COC(=O)c1ccc(C)s1)C(C)=CC(C)(C)N2` [Compound 1-18, 6-(4-Benzoyloxy-2-methoxyphenyl)-5-(5-methylthiophen-2-ylcarbonyloxymethyl)-2,2,4-trimethyl-1,2-dihydroquinoline], for which the inhibition at 20 µM (stock) came to 91%.

For `COc1cc(OC(=O)c2ccccc2C)ccc1-c1ccc2c(c1COC(=O)c1ccc(C)s1)C(C)=CC(C)(C)N2` [Compound 1-19, 6-[2-Methoxy-4-(2-methylbenzoyloxy)phenyl]-5-(5-methylthiophen-2-ylcarbonyloxymethyl)-2,2,4-trimethyl-1,2-dihydroquinoline], the inhibition at 20 µM (stock) worked out at 89%.

For `COc1cc(OC(=O)c2ccccc2F)ccc1-c1ccc2c(c1COC(=O)c1ccc(C)s1)C(C)=CC(C)(C)N2` [Compound 1-20, 6-[4-(2-Fluorobenzoyloxy)-2-methoxyphenyl]-5-(5-methylthiophen-2-ylcarbonyloxymethyl)-2,2,4-trimethyl-1,2-dihydroquinoline], the inhibition at 20 µM (stock) was found to be 90%.

Take `COc1ccc(C(=O)Oc2ccc(-c3ccc4c(c3COC(=O)c3ccc(C)s3)C(C)=CC(C)(C)N4)c(OC)c2)cc1` [Compound 1-22, 6-[2-Methoxy-4-(4-methoxybenzoyloxy)phenyl]-5-(5-methylthiophen-2-ylcarbonyloxymethyl)-2,2,4-trimethyl-1,2-dihydroquinoline]: the inhibition at 20 µM (stock) was determined as 91%.

On to `COc1cc(OC(=O)c2cncnc2)ccc1-c1ccc2c(c1COC(=O)c1ccc(C)s1)C(C)=CC(C)(C)N2` [Compound 1-23, 6-[2-Methoxy-4-(pyrimidin-5-ylcarbonyloxy)phenyl]-5-(5-methylthiophen-2-ylcarbonyloxymethyl)-2,2,4-trimethyl-1,2-dihydroquinoline], for which the inhibition at 20 µM (stock) was 94%.

As to `COc1cc(OC(=O)c2ccsc2)ccc1-c1ccc2c(c1COC(=O)c1ccc(C)s1)C(C)=CC(C)(C)N2` [Compound 1-24, 6-[2-Methoxy-4-(thiophen-3-ylcarbonyloxy)phenyl]-5-(5-methylthiophen-2-ylcarbonyloxymethyl)-2,2,4-trimethyl-1,2-dihydroquinoline], the inhibition at 20 µM (stock) worked out at 94%.

As to `COc1cc(OC(=O)c2ccoc2)ccc1-c1ccc2c(c1COC(=O)c1ccc(C)s1)C(C)=CC(C)(C)N2` [Compound 1-25, 6-[4-(Furan-3-ylcarbonyloxy)-2-methoxyphenyl]-5-(5-methylthiophen-2-ylcarbonyloxymethyl)-2,2,4-trimethyl-1,2-dihydroquinoline], the inhibition at 20 µM (stock) is 94%.
